Legend:
APOL1 G2 [1] = biological target: T1, APOL1 G2 (Homo sapiens, UniProt O14791, DEL388-389); assay: APOL1 calcium transport inhibition assay (GCaMP6f calcium influx, FLIPR) in HEK T-REx/GCaMP6f/APOL1 G2 K6.3 cells; type: cell-based; details: inhibition of APOL1-mediated calcium influx; geometric mean of at least 2 assay runs, † = single assay run (technical duplicate)
T1 construct: expressed in transfected cells; host or cells: HEK293 T-REx clonal lines: HEK T-REx/GCaMP6f/APOL1 G2 K6.3 in A1, HEK293/T-REx APOL1 G2/clone #2 in A2
T1 sequence (O14791 with tags, fused parts or gaps DEL388-389): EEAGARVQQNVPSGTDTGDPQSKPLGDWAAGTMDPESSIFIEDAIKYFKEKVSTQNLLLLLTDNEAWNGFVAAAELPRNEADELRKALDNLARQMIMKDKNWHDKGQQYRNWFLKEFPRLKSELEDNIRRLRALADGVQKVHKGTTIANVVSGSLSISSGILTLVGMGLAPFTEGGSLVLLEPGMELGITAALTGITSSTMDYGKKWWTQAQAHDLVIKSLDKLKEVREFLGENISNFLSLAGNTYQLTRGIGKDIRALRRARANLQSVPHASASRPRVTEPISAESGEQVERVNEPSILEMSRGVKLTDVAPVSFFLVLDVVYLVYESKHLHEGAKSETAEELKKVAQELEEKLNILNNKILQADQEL
Summary of the method: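 HEK293 cells stably expressing GCaMP6f, APOL1 G2 induced 6 h with doxycycline (20 ng/mL added), then washed into Ca2+-free Tyrode's buffer pH 7.4. Compounds (8-point dose response) preincubated 10 min at room temperature, then Ca2+ injected to 5 mM final and influx read on FLIPR. AC50 reported as geometric mean of runs.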

APOL1 G2 [2] = biological target: T1, APOL1 G2; assay: Rescue of HEK293 cell death caused by overexpression of APOL1 (CellTiter-Glo luminescence), HEK293/T-REx APOL1 G2/clone #2; type: cell-based; details: reversal of cell death caused by overexpression of APOL1; geometric mean of at least 2 assay runs, † = single assay run (technical duplicate)
Summary of the method: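 Rescue EC50s come from four-parameter logistic fits, geometric mean of at least 2 runs on separate days, each in duplicate. Readout: CellTiter-Glo luminescence after 17 h at 37 °C of 5,000 HEK293/T-REx APOL1 G2 clone #2 cells/well, with 6 ng/mL doxycycline to induce APOL1 and 3-fold serial compound dilutions in 0.5% DMSO.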

| Structure (SMILES) | AC50 (APOL1 G2 [1]) | EC50 (APOL1 G2 [2]) |
| --- | --- | --- |
| CS(=O)(=O)c1ccc(CCC2CCCN(CCc3cccc(Cl)c3)C2)cc1 (single isomer, unassigned) [Compound 40, (S) or (R)-1-(3-chlorophenethyl)-3-(4-(methylsulfonyl)phenethyl)piperidine] | < 118 nM | 746 nM |
| CN(c1ccc(O[C@H]2C[C@H](NCCc3cccc(Cl)c3)C2)cc1)S(C)(=O)=O [Compound 48, trans-N-(4-(3-((3-chlorophenethyl)amino)cyclobutoxy)phenyl)-N-methylmethanesulfonamide] | 1920 nM | 2540 nM |
| COC1CCN(CCc2cccc(Cl)c2)CC1COc1ccc(S(C)(=O)=O)cc1 (single isomer, unassigned) [Compound 35, (3S,4R) or (3R,4R) or (3S,4S) or (3R,4S)-1-(3-chlorophenethyl)-4-methoxy-3-((4-(methylsulfonyl)phenoxy)methyl)piperidine] | 3780 nM | 6130 nM |
| CC(CN1C[C@@H](COc2ccc(S(C)(=O)=O)cc2)[C@H](C)C1)c1cc(Cl)cc(C#N)c1 (single isomer, unassigned) [Compound 148, 3-chloro-5-[(2S or 2R)-1-[(3S, 4S)-3-[(4-meth-anesulfonylphen-oxy)methyl]-4-methylpyrroli-din-1-yl]propan-2-yl]benzonitrile] | 615 nM | 80.8 nM |
| CN(c1ccc(OC[C@H](O)CN2CCC(c3cccc(Cl)c3)C2)cc1)S(C)(=O)=O (stereo partly drawn) [Compound 77, N-(4-((2R)-3-(3-(3-chlorophenyl)pyrro-lidin-1-yl)-2-hydroxypropoxy)phe-nyl)-N-methylmethanesulfon-amide] | 1670 nM | > 6300 nM |
| CC1CC(COc2ccc(S(C)(=O)=O)cc2)CN1CCc1cccc(C#N)c1 (single isomer, unassigned) [Compound 137, 3-{2-[(2S,4R or 2R,4S or 2R,4R or 2S,4S)-4-[(4-methanesulfon-ylphenoxy)meth-yl]-2-methyl-pyrrolidin-1-yl]-ethyl}benzo-nitrile] | > 10000 nM | 4620 nM |
| C[C@@H]1CN(CCc2cc(C#N)cc(C#N)c2)C[C@H]1COc1ccc(S(C)(=O)=O)cc1 [Compound 145, 5-{2-[(3S,4S)-3-[(4-methane-sulfonylphen-oxy)methyl]-4-methylpyrroli-din-1-yl]ethyl}-benzene-1,3-dicarbonitrile] | 356 nM | 243 nM |
| CN(c1ccc(OCC2CN(CCc3cccc(Cl)c3)CCCO2)cc1)S(C)(=O)=O (centres unmarked) [Compound 10, N-(4-((4-(3-chlorophenethyl)-1,4-oxazepan-2-yl)methoxy)phenyl)-N-methylmethane-sulfonamide] | 1720 nM | 2450 nM |
| C[C@@H]1CN(CCc2cc(Cl)cc(C#N)c2)C[C@H]1COc1ccc(S(=O)(=O)CCS(C)(=O)=O)cc1 [Compound 108, 3-chloro-5-{2-[(3S,4S)-3-{[4-(2-methanesulfonyl-ethanesulfonyl)phenoxy]methyl}-4-methyl-pyrrolidin-1-yl]ethyl}benzonitrile] | 144 nM | 50.4 nM |
| C[C@@H]1CN(CC(O)c2cc(Cl)cc(C#N)c2)C[C@H]1COc1ccc(S(C)(=O)=O)cc1 (single isomer, unassigned) [Compound 122, 3-chloro-5-[(1R or 1S)-1-hydroxy-2-[(3S,4S)-3-[(4-methanesulfonylphenoxy)methyl]-4-methylpyrrolidin-1-yl]ethyl] benzonitrile] | 709 nM | 1340 nM |
| C[C@@H]1CN(CCc2cc(Cl)cc(C#N)c2)C[C@H]1COc1ccc(S(=O)(=O)C2CNC2)cc1 [Compound 173, 3-{2-[(3S,4S)-3-{[4-(azetidine-3-sulfonyl)phenoxy]methyl}-4-methylpyrrolidin-1-yl]ethyl}-5-chlorobenzonitrile] | 491 nM | 201 nM |
| C[C@@H]1C[C@H](COc2ccc(S(=O)(=O)C3CNC3)cc2)CN1CCc1cccc(C#N)c1 [Compound 156, 3-{2-[(2R,4S)-4-{[4-(azetidine-3-sulfonyl)phenoxy]methyl}-2-methylpyrrolidin-1-yl]ethyl}benzonitrile] | 311 nM | 178 nM |
| CS(=O)(=O)c1ccc(OCC2CCCCN(CCc3cccc(Cl)c3)C2)cc1 (single isomer, unassigned) [Compound 3, (S) or (R)-1-(3-chlorophenethyl)-3-((4-(methylsulfonyl)phenoxy)methyl)azepane] | 205 nM | 295 nM |
| C[C@@H]1CN(CC(O)c2cccc(Cl)c2)C[C@H]1COc1ccc(S(C)(=O)=O)cc1 (single isomer, unassigned) [Compound 124, (1R or 1S)-1-(3-chlorophenyl)-2-[(3S,4S)-3-[(4-methanesulfonylphenoxy)methyl]-4-methylpyrrolidin-1-yl]ethan-1-ol] | 148 nM | 242 nM |
| C[C@@H]1C[C@H](COc2ccc(S(C)(=O)=O)cc2)CN1CC(O)c1cc(Cl)cc(C#N)c1 (single isomer, unassigned) [Compound 115, 3-chloro-5-[(1R or 1S)-1-hydroxy-2-[(2R,4S)-4-[(4-methanesulfonylphenoxy)methyl]-2-methylpyrrolidin-1-yl]ethyl] benzonitrile] | 756 nM | 44.7 nM |
| CC1CC(COc2ccc(S(C)(=O)=O)cc2)CN1CCc1cc(Cl)cc(C#N)c1 (single isomer, unassigned) [Compound 200, 3-chloro-5-(2-((2S,4R or 2R,4S or 2R,4R or 2S,4S)-2-methyl-4-((4-(methylsulfonyl)phenoxy)methyl)pyrrolidin-1-yl)ethyl)benzonitrile] | 836 nM | 1990 nM |
| CS(=O)(=O)c1ccc(OC[C@@H]2CCCN(CC(O)c3cccc(Cl)c3)C2)cc1 (single isomer, unassigned) [Compound 21, (R) or (S)-1-(3-chlorophenyl)-2-((R)-3-((4-(methylsulfonyl)phenoxy)methyl)piperidin-1-yl)ethanol] | 623 nM | 1020 nM |
| C[C@@H]1CC[C@H](COc2ccc(S(C)(=O)=O)cc2)CN1CCc1cccc(Cl)c1 [Compound 160, (2R,5S)-1-[2-(3-chlorophenyl)ethyl]-5-[(4-methanesulfonylphenoxy)methyl]-2-methylpiperidine] | 382 nM | 584 nM |
| CC1CC(COc2ccc(S(C)(=O)=O)cc2)CN1CCc1cc(Cl)cc(C#N)c1 (single isomer, unassigned) [Compound 203, 3-chloro-5-(2-((2R,4S or 2S,4R or 2R,4R or 2S,4S)-2-methyl-4-((4-(methylsulfonyl)phenoxy)methyl)pyrrolidin-1-yl)ethyl)benzonitrile] | 9300 nM | 3540 nM |
| C[C@@H]1CN(CCc2cc(Cl)cc(C#N)c2)C[C@H]1COc1ccc(S(C)(=O)=O)cc1 [Compound 194, 3-chloro-5-{2-[(3S,4S)-3-[(4-methanesulfonylphenoxy)methyl]-4-methylpyrrolidin-1-yl]ethyl}benzonnitrile] | 151 nM | 107 nM |
| C[C@@H]1CN(CC(O)c2cc(Cl)cc(C#N)c2)C[C@H]1COc1ccc(S(C)(=O)=O)cc1 (single isomer, unassigned) [Compound 121, 3-chloro-5-[(1S or 1R)-1-hydroxy-2-[(3S,4S)-3-[(4-methanesulfonylphenoxy)methyl]-4-methylpyrrolidin-1-ylethyl]benzonitrile] | 270 nM | 100 nM |
| CN(c1ccc(OC[C@H](O)CN2CCC(c3cccc(Cl)c3)C2(C)C)cc1)S(C)(=O)=O (stereo partly drawn) [Compound 71, N-(4-((2R)-3-(3-(3-chlorophenyl)-2,2-dimethylpyrrolidin-1-yl)-2-hydroxypropoxy)phe-nyl)-N-methylmethanesulfon-amide] | 943 nM | 1960 nM |
| CS(=O)(=O)c1ccc(OC[C@H]2CCCN(CC(O)c3cccc(Cl)c3)C2)cc1 (single isomer, unassigned) [Compound 19, (S) or (R)-1-(3-chlorophenyl)-2-((S)-3-((4-(methylsulfonyl)phenoxy)methyl)piperidin-1-yl)ethan-1-ol] | 480 nM | 374 nM |
| CC(Cc1cccc(Cl)c1)NC[C@@H](O)COc1ccc(N(C)S(C)(=O)=O)cc1 (single isomer, unassigned) [Compound 89, N-(4-((R)-3-(((R) or (S)-1-(3-chlorophenyl)propan-2-yl)amino)-2-hydroxypropoxy)phe-nyl)-N-methylmethanesulfon-amide] | 449 nM | 2020 nM |
| C[C@@H]1CN(CCc2cccc(Cl)c2)C[C@@H]1COc1ccc(S(C)(=O)=O)cc1 (single isomer, unassigned) [Compound 151, (3R,4S or 3S, 4R)-1-[2-(3-chlorophenyl)-ethyl]-3-[(4-methanesulfon-ylphenoxy)meth-yl]-4-methyl-pyrrolidine] | 310 nM | 1340 nM |

— patent US20240316038A1, “APOL1 INHIBITORS AND METHODS OF USE” (Maze Therapeutics, Inc., priority 2021, published 2024)
